In PubChem BioAssay (NCI):
Where “and” joins values, the source holds several entries; their conditions need not be identical. Equal values may be shown once.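 Five compound concentrations were applied to cells in 96-well plates for 48 hours; endpoints were derived by simple linear interpolation of the resulting dose-response curve. GI50 marks 50% less growth. The concentration for full growth arrest is given as TGI.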

Tests used:
Assay in all cases: NCI-60 cell line screen, 48 h
[1] = test system: M14 melanoma
[2] = test system: SK-MEL-28 melanoma
[3] = test system: UACC-257 melanoma
[4] = test system: U251 CNS
[5] = test system: KM12 colon
[6] = test system: 786-0 renal
[7] = test system: HCT-15 colon
[8] = test system: HOP-62 NSCLC
[9] = test system: TK-10 renal
[10] = test system: SN12C renal

SMILES | GI50 [1] | TGI [1] | GI50 [2] | TGI [2] | GI50 [3] [µM] | TGI [3] | GI50 [4] | TGI [4] | GI50 [5] | TGI [5] | GI50 [6] [µM] | TGI [6] | GI50 [7] | TGI [7] | GI50 [8] | TGI [8] | GI50 [9] | TGI [9] | GI50 [10] | TGI [10]
Cn1ccnc1C(=O)/C=C/c1ccc(C(=O)Nc2c(F)c(F)c(F)c(F)c2F)cc1 | 1770 nM | 3.7 µM | 2.17 µM | 5.19 µM | 3.1 | 10.4 µM | 1090 nM | 2.34 µM | 1140 nM | 2.71 µM | 1.83 | 3.62 µM | 1110 nM | 4.3 µM | 2.77 µM | 8.71 µM | 1760 nM | 3.69 µM | 1770 nM | 3.69 µM
COc1ccc(/C=C\c2cc(OC)c(OC)c(OC)c2)c(NS(=O)(=O)c2ccc(C(C)(C)C)cc2)c1O | 191 nM | 13.5 µM | 4.91 µM | 22.2 µM | 13.2 | 32.1 µM | 597 nM | 21.8 µM | 580 nM | 15.2 µM | 0.49 | 14.6 µM | 234 nM | 16.2 µM | 10.1 µM | 70.3 µM | 1300 nM | 37.1 µM | 618 nM | 21.4 µM
COC(=O)c1sc(=NC(=S)N2CCCCC2)sc1C(=O)OC |  | > 100 µM |  | > 100 µM |  | > 100 µM |  | > 100 µM |  | > 100 µM |  | > 100 µM |  | > 100 µM |  | > 100 µM |  | > 100 µM |  | > 100 µM
O=c1[nH]c2ccc([N+](=O)[O-])c(Cl)c2c2ccccc12 |  | > 100 µM |  | 25.8 µM |  | 15.6 µM |  | 18 µM |  | 4.52 µM |  | 48.3 µM |  | > 100 µM |  | > 100 µM |  | 11.3 µM |  | 14.4 µM
COc1cc(/C=C\c2cc(OC)c(OC)c(OC)c2)cc(NS(=O)(=O)c2ccc(Cl)cc2)c1OC | 391 nM | 22.9 µM | 1.14 µM | > 100 µM | 12.5 | > 100 µM | 461 nM | 20.7 µM | 572 nM | > 100 µM | 0.666 | > 100 µM | 399 nM | > 100 µM | 0.414 µM | > 100 µM | 779 nM | 99.6 µM | 750 nM | > 100 µM
N#CC(NC(=O)CCl)=C(Cl)Cl | 1340 nM | 2.87 µM | 1.56 µM | 3.03 µM | 1.55 | 3.09 µM | 1750 nM | 3.79 µM | 1880 nM | 4.17 µM | 2.13 | 5.87 µM | 680 nM | 2.34 µM | 2.15 µM | 4.83 µM | 1740 nM | 3.4 µM | 1730 nM | 3.26 µM
COc1cc2cc3c(c(O)c2c(O)c1-c1c(OC)cc2cc4c(c(O)c2c1O)C(=O)O[C@H](C)C4)C(=O)O[C@H](C)C3 | 25700 nM | 57 µM | 33 µM | 99.1 µM | 22.9 | 48.8 µM | 19600 nM | 48.1 µM | 38800 nM | > 100 µM | 21.1 | 64.8 µM | 25600 nM | 82.1 µM | 26.9 µM | 62.7 µM | 60300 nM | > 100 µM | 18300 nM | 38.8 µM
O=NN(CCCl)C(=O)NC1CCCCC1 | 16800 nM and 56800 nM | 33 µM and 127 µM and 82.8 µM | 24.1 µM and 66.1 µM | 46.5 µM and 144 µM and 99.2 µM | 23.7 | 73.8 µM and 127 µM and 82.4 µM | 15800 nM and 64700 nM | 51.2 µM and 103 µM and 173 µM | 17500 nM and 82100 nM | 47.4 µM and 158 µM and 200 µM | 32 | 33.9 µM and 65.9 µM and 68.6 µM | 16800 nM and 54700 nM | 33.5 µM and 103 µM and 115 µM | 51.9 µM and 113 µM | 154 µM and 213 µM | 28000 nM and 87400 nM | 86.8 µM and 152 µM and 177 µM | 20900 nM and 92800 nM | 47.8 µM and 123 µM and 214 µM
NC(N)=N/N=C(/c1ccccc1)c1ccccc1F | 1700 nM | 9.59 µM | 4.69 µM | 21.4 µM | 15.8 | 38.1 µM | 2640 nM | 13.3 µM | 1140 nM | 12.9 µM | 4.58 | 21 µM | 1980 nM | 13.8 µM | 4.62 µM | 18.2 µM | 9860 nM | 47.2 µM | 5980 nM | 31.3 µM
CCN(CC)CCOc1ccc2c(C)c(C(=O)OC)oc2c1C(=O)/C=C/c1ccc(OC)cc1 | 25400 nM | > 48.7 µM | 2.89 µM | 11.2 µM | 19.8 | 36.9 µM | 1750 nM | 4.44 µM | 1760 nM | 3.96 µM | 16.6 | > 45.7 µM | 1310 nM | 3.57 µM | 28.5 µM | > 55.6 µM | 1940 nM | 5.14 µM | 166 nM | 2.66 µM
NC(N)=N/N=C/c1c(-c2ccncc2)nc2sc(Cl)cn12 | 6540 nM | 14.7 µM | 14.3 µM | 38.8 µM | 21.5 | 40.6 µM | 1940 nM | 3.93 µM | 2480 nM | 10.8 µM | 6.63 | 17 µM | 17600 nM | 36.3 µM | 15.2 µM | 37.2 µM | 5260 nM | 10.9 µM | 2590 nM | 8.58 µM
O=C(N/N=C/c1ccc(F)cc1)c1ccc(C(F)(F)F)nc1Nc1cccc(C(F)(F)F)c1 | 916 nM | 10.1 µM | 1.79 µM | 7.92 µM | 2.23 | 6.72 µM | 598 nM | 2.98 µM | 1380 nM | 3.76 µM | 0.691 | 4.62 µM | 351 nM | 1.87 µM | 1.2 µM | 4.85 µM | 582 nM | 3.86 µM | 1630 nM | 7.73 µM
Nc1ccc(C(=O)/C=C/c2ccccc2O)cc1 |  | > 100 µM |  | > 100 µM |  | > 100 µM |  | > 100 µM |  | > 100 µM |  | > 100 µM |  | > 100 µM |  | > 100 µM |  | > 100 µM |  | > 100 µM
